We go through 3 compounds from publication PMC3956872 (PLoS ONE, 2014).

Usually inhibition stands for the relative decrease from the control value, in per cent.

In the assay the target is T1, TcAAAP069 (Trypanosoma cruzi, UniProt Q4DAV2).
T1 construct: gene Tc00.1047053504069.120; full-length gene in pTREXL, overexpressed in T. cruzi epimastigotes (also p416/pDR196 in S. cerevisiae MG266 gap1 put4); about 10 transmembrane spans; allele TcAAAP229 has a 62-residue N-terminal extension
Put plainly: cell-based. The following applies: read-out: % inhibition at 10 mM.

T1 sequence (Q4DAV2 entry or part of it): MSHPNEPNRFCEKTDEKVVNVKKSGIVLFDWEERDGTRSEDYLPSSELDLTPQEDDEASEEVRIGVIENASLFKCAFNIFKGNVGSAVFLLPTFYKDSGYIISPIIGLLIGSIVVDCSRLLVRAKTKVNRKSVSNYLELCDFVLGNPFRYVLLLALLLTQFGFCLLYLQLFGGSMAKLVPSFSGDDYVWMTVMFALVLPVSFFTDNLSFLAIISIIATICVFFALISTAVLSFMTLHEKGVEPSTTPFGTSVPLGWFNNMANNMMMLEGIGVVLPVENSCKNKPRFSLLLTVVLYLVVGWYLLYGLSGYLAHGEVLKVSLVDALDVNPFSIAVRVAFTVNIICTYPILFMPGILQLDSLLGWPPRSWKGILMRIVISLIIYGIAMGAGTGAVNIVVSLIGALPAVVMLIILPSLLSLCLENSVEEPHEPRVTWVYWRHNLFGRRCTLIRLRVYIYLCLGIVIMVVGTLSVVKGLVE

`O=C(O)[C@@H]1C[C@@H](O)CN1` [hydroxyproline]: the inhibition at 10000 µM stood at 91.8%.

Consider `O=C(O)[C@@H]1CSCN1` [L-thiazolidine-4-carboxylic acid], for which the inhibition at 10000 µM came to 44.2%.

Regarding `O=C(O)[C@H]1CCCN1` [D-proline], the inhibition at 10000 µM turned out to be 76.3%.
